12 molecules from patent US5156846A, “Percutaneous drug delivery system” (University of Utah, priority 1991, dated 1992) can be followed below.

Read-outs that look alike come from different tables or passages of the source.

A short description of data set [1]: Effect of pH on drug penetration through normal untreated hairless mouse skin (Example 6A). The data set is classed as in vitro ADME. The settings on record: mouse.
Data set [2] is described as follows: Effect of pH on drug penetration through hairless mouse skin pretreated with Sigma papain (Example 6B). It is filed as in vitro ADME. The arrangement: E: unit not given here. The following applies: mouse, read-out: P (permeability). The procedure:
(§1) B. Effect of pH on drug penetration through hairless mouse skin pretreated with Sigma papain of concentration 0.093 mg/ml for 24 hours

For data set [3], the system named is hairless mouse skin pretreated with Sigma papain. Described as above. The data set is classed as in vitro ADME. The arrangement: E: unit not given here. The settings on record: for E: Sigma papain 0.093 mg/ml for 24 hours. The method, then:
as §1

The test system of data set [4] is Papain-Treated Athymic Nude Mice Skin. Put plainly: In vitro permeation through excised papain-treated athymic nude mouse skin, Franz-type diffusion cells (Example 2). The data set is classed as in vitro ADME, congenitally athymic nude mice. The procedure: Because of some complications encountered during studies utilizing papain treatment by in vivo method (e.g. extended excretion due to storage in various body compartments, delayed response times, etc.) it was decided that additional studies should be conducted wherein the mouse skin was allowed to recover in situ, then excised after various time intervals and evaluated by in vitro permeation methods.
These experiments were conducted by preparing, applying, and occluding papain solutions onto the backs of congenitally athymic nude mice in the same manner as described in Example 1A. At the end of the 24-hour papain treatment, the skin was again cleansed of excess solution. Skin was then excised from part of the animals. The remainder of the animals were housed individually in regular cages for various periods of time (24 hours and 48 hours), after which the treated areas were excised. Immediately following excision of the treated areas, the skins were mounted over Franz-Type, Single-Compartment Diffusion Cells. Four hundred μl of saturated solutions of radiolabeled citric acid, TEAB, glucose, and hydrocortisone were applied, individually, to the exposed surface of the mounted skins on the donor chamber. Saturated solutions of each of these substances were used in order to ensure maximum availability of labeled substances. At varying time intervals, 100 μl samples were removed from the receiver chambers for scintillation counting. All experiments were conducted at 25° C.

In data set [5] the test system is Nude Mouse Skin. Put plainly: In vivo skin recovery following papain treatment: percent urinary recovery 7 days after papain (Example 1B). Also noted: species or system congenitally athymic nude mice. The method, then: Experiments were conducted to measure the time required for papain-treated mice to return to normal levels of absorption. These experiments were conducted as described in Example 1A, except that following the removal of papain from the mouse's skin, the mice were maintained separately in metabolism cages for varying periods of time prior to the application of the labeled model compounds. After various time intervals, 150 μl of radiolabeled chemicals were applied separately on the 1 cm^2 marked areas on the backs of the mice, where papain had previously been applied. The mice were then kept in separate metabolism cages and at time intervals of 17, 41, and 65 hours, urine was collected and counted using a scintillation counter.

The subject of data set [6] is mouse skin. Kind of data set: Citric acid penetration through mouse skin with two sources of papain (Example 8). The data set is classed as in vitro ADME. The following applies: FIG. 20, 0.170 mg papain in 0.1 ml of water; Sigma papain not activated. The method, then:
Each enzyme preparation contained 0.170 mg of papain dissolved in 0.1 ml of water. One sample of papain was obtained from Allergan. The other was obtained from Sigma Chemical. […] The Sigma Chemical papain was not activated in this experiment.

Data set [7] deals with Nude Mouse Skin. Kind of data set: Percent urinary recovery of radiolabeled chemicals and protein through nude mouse skin immediately following papain treatment, and controls (Example 1A). The method, then: Various anionic, cationic, and nonionic chemicals were utilized as model compounds to determine the influence of proteolytic enzymes of the transdermal penetration of these substances. […] Additional studies were performed using ^14 -C-labeled albumin, lysozyme, and insulin to determine the ability of the proteolytic enzymes to enhance the percutaneous absorption of larger molecules.
Two hundred μl of this solution was applied on to 1 cm^2 areas on the back of congenitally athymic nude mice. The 1 cm^2 areas were covered with folded gauze pads to absorb the excess papain solution, then the areas were occluded with a transparent dressing (Bioclusive Tape) and an adhesive tape. Each mouse was individually housed in separate cages for 24 hours. At the end of this time, residual papain on the surface of the mouse's skin was removed by washing. After cleansing the skin, 150 μl of radiolabeled material was applied separately on each marked area of mouse skin and covered with gauze sponge and Bioclusive tape and adhesive tape. Mice were kept in metabolism cages, one animal per cage, and urine samples collected for scintillation counting to determine the quantity of radiolabeled materials being excreted. Parallel studies were conducted simultaneously on non- papain-treated living mice. These studies served as controls against which the treated animals were measured.

For data set [8], the system named is normal untreated hairless mouse skin. Put plainly: Effect of pH on drug penetration through normal untreated hairless mouse skin (Example 6A). The data set is classed as in vitro ADME. The following applies: pH 8.0.
Another data set relates to skin. Kind of data set: Pretreatment of skin samples with papain: drug penetration, skin damage and activation. The method, then: Whatever the enzyme or enzymes selected, each is typically admixed with a liquid, such as water or ethanol to form an enzyme preparation. The concentration of enzymes(s) in liquid will be of a sufficient quantity to increase the skin's permeability to selected drugs over a predetermined time period. […] Concentrations of papain in water will generally be greater than about 0.019 milligrams/milliliter (mg/ml). Preferred concentrations of papain in water will be less than about 0.093 mg/ml.
For example, papain from Sigma Chemical may be activated with the chelating agent ethylenediaminetetraacetic acid ("EDTA"). […] Amounts of EDTA in a papain enzyme preparation will vary from 2 mg/ml to about 20 mg/ml. The amino acid cysteine can also serve as an activating agent.

Data set [9] concerns mouse skin. The source says: In this experiment, varying amounts of Sigma papain, activated with cysteine and EDTA, were used.
In another data set the test system is Hairless mouse skin. The following applies: papain 0.093 mg/ml, pH 7.4, 24 hours pretreatment. The procedure:
Hairless mouse skin was pretreated with papain at a concentration of 0.093 mg/ml at pH 7.4 for 24 hours.

For data set [10], the system named is mouse skin. Put plainly: Skin damage as measured by bleeding of mouse skin (Example 5). The data set is classed as in vivo. The method, then: The absolute amounts and relative concentrations of an enzyme preparation containing papain to determine skin damage as measured by bleeding of mouse skin was determined.
The mark [11] stands for this setting: pH 5.9, read-out: P (permeability).
Setting [12] is: pH 6.6, read-out: P (permeability).
[13] abbreviates: pH 5.9, Sigma papain 0.093 mg/ml for 24 hours, pH 5.9.
Where [14] appears, read: pH 6.6, Sigma papain 0.093 mg/ml for 24 hours, pH 6.6.
Setting [15] is: pH 7.4, Sigma papain 0.093 mg/ml for 24 hours, pH 7.4.
[16] abbreviates: 7 hours exposure, 1 cm^2 section of skin, saturated solution in water, 25° C.
Where [17] appears, read: 7 days following papain treatment.
The mark [18] stands for this setting: control, no papain treatment, immediate.
Setting [19] is: immediately following papain treatment.
Setting [20] is: papain greater than 0.093 mg/ml, pH 7.4.

Regarding `CC(=O)OCC[N+](C)(C)C.[Cl-]` [Acetylcholine Chloride, acetylcholine chloride], the Papp in [1] (setting [11]) was determined as 0.0291 ×10⁻⁶ cm/s; in [1] (setting [12]) it was 0.026 ×10⁻⁶ cm/s; in data set [1] (pH 7.4, read-out: P (permeability)), 0.032 ×10⁻⁶ cm/s; in [1] (pH 8.0, read-out: P (permeability)) it was 0.0466 ×10⁻⁶ cm/s; in data set [2] (setting [13]), 3 ×10⁻⁶ cm/s; in data set [2] (setting [14]), 3.88 ×10⁻⁶ cm/s. Moreover, the Papp in data set [2] (setting [15]) amounted to 3.23 ×10⁻⁶ cm/s; in data set [2] (pH 8, Sigma papain 0.093 mg/ml for 24 hours, pH 8.0), 3.14 ×10⁻⁶ cm/s. The E in [3] (pH 5.9) amounted to 103.09; in [3] (pH 6.6) it was 149.23; in data set [3] (pH 7.4), 100.94; in data set [3] (pH 8.0) it was 67.38.

Take `C=CCc1ccccc1OCC(O)CNC(C)C` (stereo not shown) [Alprenolol, alprenolol]: the E is given as 22.39 in [3] (pH 5.9), 17.18 in data set [3] (pH 6.6), 7.17 in [3] (pH 7.4) and 7.86 in [3] (pH 8.0). Further, the “P (permeability)” value in data set [3] (mouse, pH 8) was 1.65 = 10^-6 cm/sec.

`O=C(O)CC(O)(CC(=O)O)C(=O)O` [Citric Acid, citric acid]: the transdermal penetration entry in data set [4] (setting [16]) was “about 55 mg”. Further, the “Percent Recovery (urinary recovery)” value in the data set with Nude Mouse Skin [5] (setting [17]) stood at 0.2%. Further, in the data set on mouse skin [6], the “penetration through mouse skin” value is given as “enhanced to a greater extent by the Allergan papain than that of Sigma Chemical”.

`OC[C@H]1OC(O)[C@H](O)[C@@H](O)[C@@H]1O` (stereo partly shown) [Glucose, glucose]: the “Percent Recovery (urinary recovery)” value in the data set on Nude Mouse Skin [7] (setting [18]) came to 0.07%; in the data set with Nude Mouse Skin [7] (setting [19]) it was 1.8%; with Nude Mouse Skin [5] (setting [17]), 0.1%. Moreover, the transdermal penetration result in data set [4] is “about 22 mg”.

In the case of `C[C@]12CCC(=O)C=C1CC[C@@H]1[C@@H]2[C@@H](O)C[C@@]2(C)[C@H]1CC[C@]2(O)C(=O)CO` [Hydrocortisone, hydrocortisone], the “Percent Recovery (urinary recovery)” value in the data set on Nude Mouse Skin [7] (setting [18]) stood at 2.5%; in the data set with Nude Mouse Skin [7] (setting [19]), 24.7%; in the data set on Nude Mouse Skin [5] (setting [17]), 0.6%. The transdermal penetration entry in [4] (7 hours exposure, 1 cm^2 section of skin, saturated solution in ethanol, 25° C) was “about 125 μg”.

Regarding `CC(=O)[C@H]1CC[C@H]2[C@@H]3CCC4=CC(=O)CC[C@]4(C)[C@H]3CC[C@]12C` [Progesterone, progesterone], the “P (permeability)” value in [8] amounted to 0.247 ×10⁻⁶ cm/s. For the same molecule, the Papp in [1] (setting [11]) came out at 2.88 ×10⁻⁶ cm/s; in data set [1] (setting [12]), 2.92 ×10⁻⁶ cm/s; in data set [2] (setting [13]), 3.6 ×10⁻⁶ cm/s; in data set [2] (setting [14]), 4.39 ×10⁻⁶ cm/s; in data set [2] (setting [15]), 3.41 ×10⁻⁶ cm/s. Further, the E in [3] (pH 5.9) was 1.25; in data set [3] (pH 6.6), 1.50; in data set [3] (pH 7.4) it was 1.17; in [3] (pH 8.0), 1.17.

The molecule `CC[N+](CC)(CC)CC.[Br-]` [TEAB, tetraethylammonium bromide] gave a transdermal penetration in [4] (setting [16]) of approximately 19 mg. Also, the “penetration through the skin” value in the data set with skin is on record as “increases the penetration”. Further, in the data set with mouse skin [9], the “drug penetration through mouse skin” value is on record as “varies directly with the amount of papain used”. In addition, in the data set with Hairless mouse skin, the “increase in absorption in comparison to normal, untreated mouse skin” value is 33 fold. For the same molecule, the “Percent Recovery (urinary recovery)” value with Nude Mouse Skin [5] (mouse, in vivo, topical or ocular) stood at 5.3%.

In the case of `CC(=O)CC(c1ccccc1)c1c(O)c2ccccc2oc1=O` (stereo not shown) [Warfarin, warfarin], the Papp in data set [2] (Sigma papain 0.093 mg/ml for 24 hours, pH 5.9) amounted to 1.27 ×10⁻⁶ cm/s; in [2] (Sigma papain 0.093 mg/ml for 24 hours, pH 6.6), 1.2 ×10⁻⁶ cm/s; in [2] (Sigma papain 0.093 mg/ml for 24 hours, pH 7.4), 0.99 ×10⁻⁶ cm/s; in [2] (Sigma papain 0.093 mg/ml for 24 hours, pH 8.0) it was 1.21 ×10⁻⁶ cm/s.

As to Albumin: 14-C-labeled albumin, in the data set on Nude Mouse Skin [5] (setting [17]), the “Percent Recovery (urinary recovery)” value came out at 0.0%.

As to Insulin: 14-C-labeled insulin, the “Percent Recovery (urinary recovery)” value with Nude Mouse Skin [5] (setting [17]) was 0.0%.

For the molecule Lysozyme: 14-C-labeled lysozyme, in the data set with Nude Mouse Skin [5] (setting [17]), the “Percent Recovery (urinary recovery)” value stood at 0.0%.

B1: papain: A preferred enzyme is papain, which is readily available from Allergan of Irvine, Calif., Sigma Chemical Company of St. Louis, Mo., and other sources (protein, UniProt P00784 134-345, looked up)
Papain: IPEYVDWRQKGAVTPVKNQGSCGSCWAFSAVVTIEGIIKIRTGNLNEYSEQELLDCDRRSYGCNGGYPWSALQLVAQYGIHYRNTYPYEGVQRYCRSREKGPYAAKTDGVRQVQPYNEGALLYSIANQPVSVVLEAAGKDFQLYRGGIFVGPCGNKVDHAVAAVGYGPNYILIKNSWGTGWGENGYIRIKRGTGNSYGVCGLYTSSFYPVKN
Take B1: the “penetration of drug through the skin” value with skin (0.10 molar cysteine with 0.0375 molar EDTA as activating agent) is reported as “greater penetration of drug through the skin”. Moreover, the drug penetration result in the data set on skin (setting [20]) is reported as “greater drug penetration”. For the same molecule, in the data set with skin (setting [20]), the skin damage result is given as “damages the skin, possibly leading to bleeding”. For the same molecule, the “time until bleeding observed” value with mouse skin [10] (absolute amount of papain: 0.010 mg/0.108 ml) was more than 24 h; in the data set with mouse skin [10] (absolute amount of papain: 0.030 mg/0.108 ml) it was “about 5.0 hrs”; in the data set on mouse skin [10] (absolute amount of papain: 0.050 mg/0.180 ml), “about 1.5 hrs”; with mouse skin [10] (absolute amount of papain: 0.070 mg/0.250 ml), “about 0.5 hrs”; in the data set on mouse skin [10] (concentration of papain: 0.010 mg/0.108 ml), more than 24 h; in the data set on mouse skin [10] (concentration of papain: 0.020 mg/0.108 ml), more than 24 h. For the same molecule, the “time until bleeding observed” value with mouse skin [10] (concentration of papain: 0.030 mg/0.108 ml) and in the data set with mouse skin [10] (concentration of papain: 0.040 mg/0.108 ml) was approximately 24 h in each case.
